Test results: PubChem BioAssay (NCI)
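In this assay, cells in 96-well plates receive the compound at five concentrations for 48 hours. Endpoints are linearly interpolated between the surrounding concentrations. GI50 marks 50% less growth. At the TGI there is no net growth.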

Assays:
Assay in all cases: DTP human tumour cell line panel, 48 h
HOP-92 NSCLC = system: HOP-92 NSCLC
HT29 colon = system: HT29 colon
LOX IMVI melanoma = system: LOX IMVI melanoma
MDA-MB-231 breast = system: MDA-MB-231 breast
NCI-H460 lung = system: NCI-H460 lung
OVCAR-8 ovarian = system: OVCAR-8 ovarian
SF-268 CNS = system: SF-268 CNS
SK-MEL-2 melanoma = system: SK-MEL-2 melanoma
SNB-75 CNS = system: SNB-75 CNS
UACC-257 melanoma = system: UACC-257 melanoma

Row | SMILES | GI50 (HOP-92 NSCLC) [µM] | TGI (HOP-92 NSCLC) [µM] | GI50 (HT29 colon) [µM] | TGI (HT29 colon) [µM] | GI50 (LOX IMVI melanoma) [µM] | TGI (LOX IMVI melanoma) [µM] | GI50 (MDA-MB-231 breast) [µM] | TGI (MDA-MB-231 breast) [µM] | GI50 (NCI-H460 lung) [µM] | TGI (NCI-H460 lung) [µM] | GI50 (OVCAR-8 ovarian) [µM] | TGI (OVCAR-8 ovarian) [µM] | GI50 (SF-268 CNS) [µM] | TGI (SF-268 CNS) [µM] | GI50 (SK-MEL-2 melanoma) [µM] | TGI (SK-MEL-2 melanoma) [µM] | GI50 (SNB-75 CNS) [µM] | TGI (SNB-75 CNS) [µM] | GI50 (UACC-257 melanoma) [µM] | TGI (UACC-257 melanoma) [µM]
1 | CC([C@H]1CCC2C3CCC4C(=O)C(NC=O)=CC[C@]4(C)C3CC[C@@]21C)N(C)C (stereo partly drawn) | 4.64 | 12.7 | 0.505 | 2.37 | 1.78 | 4.02 | 2.36 | 7.07 | 2.15 | 5.49 | 6.16 | 40.9 | 2.17 | 5.48 | 7.7 | 25.2 | 3.66 | 15.5 | 4.24 | 10.4
2 | NC(=O)c1ncn(C2CCC(CP(=O)(O)O)C2)c1N (stereo not drawn) | – | > 100 | – | > 100 | – | > 100 | – | > 100 | – | > 100 | – | > 100 | – | > 100 | – | > 100 | – | > 100 | – | > 100
3 | COc1ccc2c(c1)Cc1cc(N=[N+]([O-])c3ccc4c(c3)Cc3cc(OC)ccc3-4)ccc1-2 | – | > 100 | – | 32.9 | – | 97.7 | – | > 100 | – | > 100 | – | > 100 | – | > 100 | – | > 100 | – | > 100 | – | 52.7
4 | COc1ccc(-n2cc(-c3ccc(Cl)cc3)[nH]c2=S)cc1Cl | 17.2 | 43.5 | 74.2 | > 100 | 94 | > 100 | 22.1 | 82.2 | 50.5 | > 100 | 37.4 | > 100 | 28 | 76.5 | 82.1 | > 100 | 21.6 | 46.7 | > 100 | > 100
5 | O=C1C=Cc2cc3ccccc3c3cccc1c23 | 1.11 | 6.29 | 7.29 | > 100 | 2.87 | 12.2 | 4.72 | 29 | 3.37 | 11.6 | 3.3 | 16.7 | 4.55 | 27 | 27.6 | > 100 | 11.8 | 72.3 | 4.29 | 19.2
6 | O=C1/C(=C/c2ccc(F)cc2)CN(Cc2cn(CCNc3ccnc4cc(Cl)ccc34)nn2)C/C1=C\c1ccc(F)cc1 | 1.34 | 3.05 | 0.68 | 2.09 | 0.474 | 1.72 | 1.76 | 3.41 | 1.18 | 2.57 | 1.78 | 5.24 | 1.52 | 2.91 | 1.94 | 3.73 | 1.6 | 3.62 | 1.78 | 3.35
7 | Cc1c(Br)cccc1NC(=O)c1sc2nc3c(cc2c1N)CN(Cc1ccccc1)CC3 | 0.509 | 10.7 | 0.179 | 5.25 | 0.336 | > 50 | 0.531 | 38.1 | 0.191 | 5.02 | 0.298 | > 50 | 0.525 | 27.2 | 0.231 | 15.1 | 0.28 | 17.1 | 8.92 | > 50
8 | COc1ccc(NC(=O)CC(=O)n2nc(-c3ccccc3)c(N=Nc3ccc(C)cc3)c2-c2ccccc2)cc1 | – | 40.6 | – | > 100 | – | > 100 | – | > 59.6 | – | 66.3 | – | 63.3 | – | 53.4 | – | 65.2 | – | 41.2 | – | > 95.8
9 | COc1cc(C2CC(c3ccc(C)cc3)=NN2C(C)=O)ccc1Oc1ccnc2cc(Cl)ccc12 (stereo not drawn) | 30.1 | > 100 | > 100 | > 100 | – | – | 11.3 | > 100 | – | – | – | – | 38.4 | > 100 | 15.8 | 43.2 | 0.482 | 5.93 | > 100 | > 100
10 | COC(=O)C1=C(O)C(C(=O)OC)[C@@]2(O)[C@@H](C(=O)OC)C(c3ccccc3C(F)(F)F)C[C@@H]1[C@@H]2C(=O)OC (stereo partly drawn) | 15.8 | 37.9 | 0.228 | 5.3 | – | – | 7.99 | 22.4 | 3.11 | 10.5 | 10.1 | 24.5 | 12.2 | 30.3 | 19.7 | 36.4 | 0.0935 | 1.53 | 6.39 | 20.3
11 | CC(=O)c1c[nH]c2ccc(-c3ccnc(Nc4ccc(NC(=O)c5cccc(F)c5)c(CN5CCOCC5)c4)n3)cc12 | 0.154 | 1.17 | 0.146 | – | 0.0604 | 0.45 | 0.177 | 1.3 | 0.176 | – | 0.255 | > 100 | 0.225 | 2.49 | 0.18 | 0.549 | 0.042 | 0.342 | 0.304 | 2.65
12 | N#CC1=C(N)Oc2c(sc3c(F)cccc23)C1c1ccc(Cl)cc1 (stereo not drawn) | 3.71 | 19.2 | 3.17 | 11.5 | 3.06 | 11.8 | 3.46 | 16.2 | 3.38 | 11.8 | 4.4 | 18.7 | 4.32 | 31.2 | 3.49 | 15.5 | 2.27 | 10 | 11.7 | > 100
13 | COc1ccc(CNCCN2C(=O)c3ccc4c5c(ccc(c35)C2=O)C(=O)N(CCNCc2ccc(OC)cc2)C4=O)cc1 | 0.788 | 2.68 | 0.122 | 0.403 | 0.195 | 0.583 | 0.294 | 1.13 | 0.25 | 0.943 | 0.178 | 0.611 | 0.284 | 1.17 | 0.313 | 1.14 | 1.15 | 2.48 | 0.184 | 0.337
14 | CC(C)n1c2c(c3ccccc3c1=O)C(=O)c1ccccc1-2 | – | > 100 | – | > 100 | – | > 100 | – | > 100 | – | – | – | > 100 | – | > 100 | – | > 100 | – | > 100 | – | > 100
15 | COc1ccc(/C(C#N)=C/c2nc3c(N4CCOCC4)nc(Cl)nc3n2C)cc1OC | 0.246 | 2.94 | < 0.01 | 1.4 | < 0.01 | 1.15 | < 0.0133 | 2.46 | < 0.01 | 1.99 | < 0.01 | 3.97 | 0.0173 | 2.23 | < 0.0228 | 1.27 | < 0.01 | < 0.01 | 1.29 | 2.87
16 | COC(=O)C(=O)C(C(=O)C(=O)Nc1ccc(Cl)cc1Cl)c1nc2ccc(Cl)cc2[nH]c1=O (stereo not drawn) | – | > 100 | – | > 100 | – | > 100 | – | > 100 | – | > 100 | – | > 100 | – | > 100 | – | > 100 | – | > 100 | – | > 100
17 | COc1ccc(-c2ccc(/C=N/n3cnn(CN4CCN(C)CC4)c3=S)o2)c([N+](=O)[O-])c1 | 17.1 | 58.4 | 28.4 | > 100 | 23.3 | 66.8 | 25.3 | 77.1 | 35.2 | > 100 | 18.9 | 55.5 | 23.6 | 69.5 | > 100 | > 100 | 68.9 | > 100 | – | –
18 | O=C1CCc2cc([N+](=O)[O-])ccc2O1 | – | > 100 | – | > 100 | – | > 100 | – | > 100 | – | > 100 | – | > 100 | – | > 100 | – | > 100 | – | > 100 | – | > 100
19 | CC(=O)NC1=NC(=O)/C(=C/c2ccc(Cl)cc2Cl)N1C | – | > 100 | – | > 100 | – | > 100 | – | > 100 | – | > 100 | – | > 100 | – | > 100 | – | > 100 | – | > 100 | – | > 100
20 | O=C(O)/C=C/C(=O)Nc1cccc2c1-c1ccccc1C2=O | – | > 100 | – | > 91.9 | – | > 100 | – | 81.3 | – | > 35.5 | – | > 100 | – | > 100 | – | 32.9 | – | > 58.4 | – | > 100
21 | CN1CCN(c2nc(NCCNc3ccnc4cc(Cl)ccc34)c3ccccc3n2)CC1 | 1.13 | 2.6 | 0.699 | 4.18 | 1.63 | 3.34 | 1.37 | 3.14 | 1.7 | 6.49 | 2.12 | 5.75 | 2.72 | 13.1 | 1.98 | 4.19 | 1.84 | 4.96 | 1.71 | 3.18
22 | COc1cc2c(cc1OC)[C@@H]1[C@H](C2=O)c2ccc([N+](=O)[O-])cc2C(=O)N1CCCBr | 3.15 | > 100 | 0.35 | – | 0.2 | 0.81 | 1.45 | 6.61 | – | – | 0.0169 | 2.04 | – | > 39.4 | 4.62 | > 100 | 0.611 | 12.5 | 0.0737 | 0.893
23 | OCCOCn1nc(-c2ccccc2)nc1-c1cnccn1 | – | > 100 | – | > 100 | – | > 100 | – | > 100 | – | > 100 | – | > 100 | – | > 100 | – | – | – | > 100 | – | > 100
24 | COC1=C(NC(C)=O)C(=O)c2nc3n(c2C1=O)CCC3 | – | 26.2 | – | 66.2 | – | 31.8 | – | 27.1 | – | > 76 | – | 33.5 | – | 33.2 | – | 32.7 | – | 41.2 | – | 30.4
25 | Cc1cc(CC(O)(C(F)(F)F)C(F)(F)F)cc(CC(O)(C(F)(F)F)C(F)(F)F)n1 | – | 5.48 | – | 7.79 | – | 5.79 | – | 6.84 | – | 4.2 | – | 12.4 | – | 10.1 | – | 5.45 | – | 6.58 | – | 8.65
26 | O=C(O)CSc1ccn(Cc2ccccc2)c1 | – | > 100 | – | > 100 | – | > 100 | – | > 100 | – | > 100 | – | > 100 | – | > 100 | – | > 100 | – | > 100 | – | > 100
27 | O=C(NCCc1ccccc1)C(c1csc2ccccc12)N(C(=O)CCl)c1ccc(-c2cnco2)cc1 (stereo not drawn) | 0.174 | 0.443 | 0.257 | 1.06 | < 0.01 | – | 0.226 | 1.36 | 0.631 | – | 0.169 | 1.28 | 0.362 | 0.958 | 1.64 | 3.12 | 0.502 | 0.99 | 1.63 | 3.17
28 | COc1ccc(C2CC(c3cccc(Nc4ccnc5cc(Cl)ccc45)c3)=NN2c2ccccc2)cc1 (stereo not drawn) | 3.93 | 47.6 | – | – | 0.338 | 11.1 | 1.31 | 29.2 | 0.418 | 12.2 | 2.85 | 38.8 | 4.19 | > 100 | 2.07 | 10.4 | 3.34 | 49.1 | 1.36 | 31.4
29 | CCCCC#Cc1c(I)n(C2OC(CO[Si](C)(C)C(C)(C)C)C3OC(C)(C)OC32)c(=O)[nH]c1=O (stereo not drawn) | 3.04 | 8.08 | 8.21 | 22.1 | 3.39 | > 100 | 2.44 | 9.55 | – | – | 3.73 | 15.9 | 10.3 | 22.4 | 1.37 | 3.58 | 12.1 | 24.9 | 3.1 | 15.5
30 | C=CC[n+]1c(/C=C2\Sc3ccccc3N2C)sc(-c2ccccc2)c1-c1ccccc1 | 0.155 | 0.571 | 0.306 | 6.1 | 0.34 | 1.54 | 0.287 | 2.99 | 0.284 | 11.4 | 0.338 | 10.9 | 0.405 | 15.6 | – | – | 0.298 | – | 0.239 | 0.737
